{
  "source": "patent US4316839A",
  "about": "“Imidazodiazepine derivatives” (Hoffman-La Roche Inc., priority 1979, dated 1982)",
  "key": {"Schistosoma mansoni [1]": {"tested_on": "Schistosoma mansoni", "test": "in vitro schistosomicidal activity (motility of isolated worm pairs)", "format": "cell-based", "settings": "25 μg/ml alone", "method": "In order to test the in vitro activity of preparations, worm pairs of Schistosoma mansoni are isolated from mice and incubated at 37° C. in a nutrient medium. Test preparations are added in the form of a solution or as a suspension. The motility of the worms is observed under the microscope and registered during the test duration of 120 hours. A schistosomicidal activity of a test preparation manifests itself in the more or less rapid loss of motility of the worms. Control worms in the nutrient medium without the addition of test preparation maintain their normal motility during the entire test duration of 120 hours.\n(§1) The following representative compounds of formula I were tested in tests described earlier for possible detrimental effects on the schistosomicidal activity of (+)-5-(o-chlorophenyl)-1,3-dihydro-3-methyl-7-nitro-2H-1,4-benzodiazepin-2-one (compound S)."}, "Schistosoma mansoni [2]": {"tested_on": "Schistosoma mansoni", "test": "schistosomicidal activity in infected golden hamsters", "format": "in vivo", "settings": "Hamster; Compound S 75 mg/kg p.o. alone", "method": "(§2) Mice and golden hamsters are infected subcutaneously with 60 cercaria of Schistosoma mansoni. Ca 42 days after the infection, they are treated orally with a single dosage of the compound to be tested. 5 Animals are used per test preparation and dosage. 10 Untreated animals are used as controls. The animals are killed and dissected 2 weeks (hamster) or 3 weeks (mice) after the treatment. Worm pairs in mesenteric veins, portal vein and liver are dissected-out, counted and the condition of the worms (living or dead) is registered. A schistosomicidal activity of a test preparation manifests itself in the appearance of dead worms in the vessels of the liver. Dead worms are never found in untreated control animals. The test is evaluated by calculating the percentage of dead worm pairs in the vessels of the liver in infected, treated animals.\nas §1"}, "Schistosoma mansoni [3]": {"tested_on": "Schistosoma mansoni", "test": "schistosomicidal activity in infected mice", "format": "in vivo", "settings": "Mouse; Compound S 75 mg/kg p.o. alone", "method": "as §2, §1"}},
  "data": [
    {"smiles": "CC1N=C(c2ccccc2Cl)c2cc([N+](=O)[O-])ccc2NC1=O", "note": "(single isomer, unassigned; (+)) [Compound S, (+)-5-(o-chlorophenyl)-1,3-dihydro-3-methyl-7-nitro-2H-1,4-benzodiazepin-2-one]", "values": [
      {"measurement": "Activity (in vitro)", "setting": "Schistosoma mansoni [1]", "result": "a (worm pairs motionless within 15)"},
      {"measurement": "Schistosomicidal activity in %", "setting": "Schistosoma mansoni [2]", "result": 100, "unit": "%"},
      {"measurement": "Schistosomicidal activity in %", "setting": "Schistosoma mansoni [3]", "result": 99, "unit": "%"}
    ]}
  ]
}
